Data: patent US9777045B2, “Immunogenic compositions and methods” (Longhorn Vaccines and Diagnostics, LLC, priority 2007, dated 2017)
Where “and” joins values, the source holds several entries; their conditions need not be identical. Equal entries are not always repeated. Where two headings read alike, the source gives them in different places.

Assays:
[1] = test system: live Wuhan (Influenza A/Wuhan/359/95, H3N2); assay: ELISA for anti-Wuhan antibodies (mouse sera 1:100); format: in vivo, mice; details: for Absorbance values for individual sera tested on influenzavirus strain Wuhan, Pre: pre-bleed; for Anti-Wuhan Absorbance Day 42 (group average) / Anti-Wuhan Absorbance Pre-Bleed (group average): averaged results
[2] = test system: peptide corresponding to the peptide-BSA conjugate used for injection; assay: ELISA for anti-peptide antibodies (individual mouse sera 1:100); format: in vivo, mice; details: for Average Absorbance Values of sera for tested peptides, Day 14 / Average Absorbance Values of sera for tested peptides, Day 29 / Average Absorbance Values of sera for tested peptides, Day 42 / Average Absorbance Values of sera for tested peptides, Pre: group average; for Average Absorbance Values of sera for tested peptides, Day 14 / Average Absorbance Values of sera for tested peptides, Day 29 / Average Absorbance Values of sera for tested peptides, Day 42 / Average Absorbance Values of sera for tested peptides, Pre / Individual absorbancy values of sera for tested peptides, Day 14 / Individual absorbancy values of sera for tested peptides, Day 29 / Individual absorbancy values of sera for tested peptides, Day 42: mice; for Average Absorbance Values of sera for tested peptides, Pre / Individual absorbancy values of sera for tested peptides, Pre: pre-bleed; for Individual absorbancy values of sera for tested peptides, Pre: mice injected with peptide-BSA conjugate, absorbance 450 nm; for Individual absorbancy values of sera for tested peptides, Pre / Individual absorbancy values of sera for tested peptides, Day 14 / Individual absorbancy values of sera for tested peptides, Day 29 / Individual absorbancy values of sera for tested peptides, Day 42: sera 1:100
Procedure: Individual sera were tested at a final dilution of 1:100 (in PBS-T) on Nunc Maxisorp® plates coated with the peptide corresponding to the peptide-BSA conjugate used for injection, at a concentration of 1 μg/ml in PBS (100 μl/well). One hundred microliters of diluted sera were reacted on the coated plate for 30 to 60 min at room temperature, and unbound material was removed by washing three times with PBS-T. Anti-peptide antibodies were detected with peroxidase-labeled goat anti-mouse IgG (γ-specific), diluted 1:10000 in PBS-T (100 μl/well; Jackson ImmunoResearch Laboratories, Inc., West Grove, Pa., USA). Following 30-min incubation, the wells were washed five times with PBS-T to removed unbound material and 100 μl of substrate (TMB; Kirkegaard & Perry Laboratories, Inc., Gaithersburg, Md., USA) was added to each well. The reaction was allowed to proceed for 15 min in the dark and stopped by addition of 100 μl of TMB Stop Solution per well (Kirkegaard & Perry). Absorbance was determined at 450 nm.

[3] = test system: IFN-γ induction in splenocytes; format: cell-based; details: mice immunized with peptide-BSA conjugates, 72 h in vitro treatment
[4] = test system: Influenza H1N1, H3N2, and H5N1; details: in vivo
live H3N2 virus = format: in vivo, cotton rats (Sigmodon hispidus); details: cotton rats; 100 μg IM on day 0 and day 28, in CFA or in PBS; sera day 0, 28, 42
[5] = mice, 5 μg per injection, sera 1:100
[6] = mice, 20 μg per injection, sera 1:100
[7] = sera 1:100, dose per inject 5 μg
[8] = sera 1:100, dose per inject 20 μg
[9] = sera 1:100, dose per injection 5 μg
[10] = sera 1:100, dose per injection 20 μg

Molecule	Absorbance values for individual sera tested on influenzavirus strain Wuhan, Pre [1, 5]	Absorbance values for individual sera tested on influenzavirus strain Wuhan, Pre [1, 6]	Anti-Wuhan Absorbance Day 42 (individual mice) [1, 7]	Anti-Wuhan Absorbance Pre-Bleed (individual mice) [1, 7]	Anti-Wuhan Absorbance Day 42 (individual mice) [1, 8]	Anti-Wuhan Absorbance Pre-Bleed (individual mice) [1, 8]	Anti-Wuhan Absorbance Day 42 (group average) [1, 9]	Anti-Wuhan Absorbance Pre-Bleed (group average) [1, 9]	Anti-Wuhan Absorbance Day 42 (group average) [1, 10]	Anti-Wuhan Absorbance Pre-Bleed (group average) [1, 10]	Average Absorbance Values of sera for tested peptides, Day 14 ([2]; 5 μg per injection)	Average Absorbance Values of sera for tested peptides, Day 29 ([2]; 5 μg per injection)	Average Absorbance Values of sera for tested peptides, Day 42 ([2]; 5 μg per injection)	Average Absorbance Values of sera for tested peptides, Pre ([2]; 5 μg per injection)	Average Absorbance Values of sera for tested peptides, Day 14 ([2]; 20 μg per injection)	Average Absorbance Values of sera for tested peptides, Day 29 ([2]; 20 μg per injection)	Average Absorbance Values of sera for tested peptides, Day 42 ([2]; 20 μg per injection)	Average Absorbance Values of sera for tested peptides, Pre ([2]; 20 μg per injection)	Individual absorbancy values of sera for tested peptides, Pre ([2]; 5 μg per injection)	Individual absorbancy values of sera for tested peptides, Pre ([2]; 20 μg per injection)	further results
DWSGYSGSFVQHPELTGL [Peptide 5912]	0.063 and 0.060 and 0.062 and 0.083	0.077 and 0.084 and 0.057 and 0.086	0.086 and 0.100 and 0.527 and 0.090	0.063 and 0.060 and 0.062 and 0.083	0.132 and 0.431 and 0.093 and 0.068	0.077 and 0.084 and 0.057 and 0.086	0.201	0.067	0.181	0.076	0.162	0.325	0.693	0.130	0.130	0.123	0.155	0.100	0.090 and 0.094 and 0.107 and 0.156	0.100 and 0.098 and 0.090 and 0.123	Individual absorbancy values of sera for tested peptides, Day 14 ([2]; 5 μg per injection): 0.287 and 0.109 and 0.230 and 0.147; Individual absorbancy values of sera for tested peptides, Day 29 ([2]; 5 μg per injection): 0.175 and 0.137 and 0.700 and 0.138; Individual absorbancy values of sera for tested peptides, Day 42 ([2]; 5 μg per injection): 0.154 (2×) and 0.167 and 1.758; Individual absorbancy values of sera for tested peptides, Day 14 ([2]; 20 μg per injection): 0.091 and 0.082 and 0.103 and 0.088; Individual absorbancy values of sera for tested peptides, Day 29 ([2]; 20 μg per injection): 0.098 and 0.146 and 0.099 and 0.096; Individual absorbancy values of sera for tested peptides, Day 42 ([2]; 20 μg per injection): 0.155 and 0.189 and 0.168 and 0.111
GNLFIAP [Peptide 5910]	0.076 and 0.092 and 0.068 and 0.109	0.069 and 0.070 and 0.071 and 0.092	0.449 and 0.341 and 0.288 and 0.088	0.076 and 0.092 and 0.068 and 0.109	0.546 and 0.096 and 0.271 and 0.385	0.069 and 0.070 and 0.071 and 0.092	0.291	0.086	0.324	0.075	0.113	0.140	0.318	0.154	0.102	0.202	0.237	0.083	0.100 and 0.110 and 0.097 and 0.308	0.081 and 0.083 (2×) and 0.087	IFN-γ response of spleen cell supernatants (in words) [3]: strongest IFN-γ response; IFN-γ response of spleen cell supernatants (in words) ([3]; listed as GNLFIAP): good IFN-γ response; antibody responses that bound to native influenza (whole H3 virus), day 42 vs before ([1]; mice, conjugates at 5-μg and 20-μg doses): good antibody responses; Individual absorbancy values of sera for tested peptides, Day 14 ([2]; 5 μg per injection): 0.089 and 0.090 and 0.086 and 0.186; Individual absorbancy values of sera for tested peptides, Day 29 ([2]; 5 μg per injection): 0.099 and 0.226 and 0.085 and 0.149; Individual absorbancy values of sera for tested peptides, Day 42 ([2]; 5 μg per injection): 0.123 and 0.306 and 0.680 and 0.162; Individual absorbancy values of sera for tested peptides, Day 14 ([2]; 20 μg per injection): 0.104 and 0.081 and 0.078 and 0.144; Individual absorbancy values of sera for tested peptides, Day 29 ([2]; 20 μg per injection): 0.296 and 0.077 and 0.133 and 0.302; Individual absorbancy values of sera for tested peptides, Day 42 ([2]; 20 μg per injection): 0.279 and 0.164 and 0.175 and 0.333
HYEECSCYDWSGYSGSFVQHPELTGLHYEECSCYQYIKANSKFIGITE [Peptide 5908]	–	–	–	–	–	–	–	–	–	–	–	–	–	–	–	–	–	–	–	–	immune response against Influenza H1N1, H3N2, and H5N1 [4]: raised an immune response
KSCINRCFYVELIRGR [Peptide 5914]	0.062 and 0.059 and 0.090 and 0.083	0.099 and 0.132 and 0.068 and 0.080	0.176 and 0.329 and 0.239 and 0.096	0.062 and 0.059 and 0.090 and 0.083	0.156 and 0.408 and 0.296 and 0.182	0.099 and 0.132 and 0.068 and 0.080	0.210	0.073	0.260	0.094	0.128	0.181	0.284	0.126	0.174	0.171	0.411	0.146	0.110 and 0.133 and 0.136 and 0.126	0.165 (2×) and 0.133 and 0.123	Absorbance values for individual sera tested on influenzavirus strain Wuhan, Day 42 ([1]; mice, 5 μg per injection, day 42, sera 1:100): 0.172; Individual absorbancy values of sera for tested peptides, Day 14 ([2]; 5 μg per injection): 0.117 and 0.123 and 0.156 and 0.118; Individual absorbancy values of sera for tested peptides, Day 29 ([2]; 5 μg per injection): 0.248 and 0.136 and 0.219 and 0.121; Individual absorbancy values of sera for tested peptides, Day 42 ([2]; 5 μg per injection): 0.388 and 0.264 and 0.357 and 0.127; Individual absorbancy values of sera for tested peptides, Day 14 ([2]; 20 μg per injection): 0.213 and 0.150 and 0.153 and 0.180; Individual absorbancy values of sera for tested peptides, Day 29 ([2]; 20 μg per injection): 0.175 and 0.214 and 0.141 and 0.156; Individual absorbancy values of sera for tested peptides, Day 42 ([2]; 20 μg per injection): 0.284 and 0.480 and 0.646 and 0.234
MSLLTEVETPIRNEWGCRCNDSSD [Peptide M2e, reference compound]	–	–	–	–	–	–	–	–	–	–	–	–	–	–	–	–	–	–	–	–	IgG titers to live H3N2 virus (ELISA) (live H3N2 virus): no particular advantage over small epitopic peptide fragments
GNLFIAPGNLFIAPHYEECSCYHYEECSCYQYIKANSKFIGITEHYEECSCYTPIRNETPIRNE (peptide) GNLFIAPGNLFIAPHYEECSCYHYEECSCYQYIKANSKFIGITEHYEECSCYTPIRNETPIRNE	–	–	–	–	–	–	–	–	–	–	–	–	–	–	–	–	–	–	–	–	immune response against Influenza H1N1, H3N2, and H5N1 [4]: raised an immune response
